Laboratory results from patent US8147838B2, “Peptide” (priority 2005, dated 2012).
No end group written: not given here.

These sequences were tested against MHC class I allele A*0201 (A2) (Homo sapiens, UniProt P04439, D140Y/D185E/D98H/E176V/E277Q/G131W/G231S/I119V/I121R/I166T/I218V/L300P/L318F/N151K/N90K/P208A/P217A/Q86G/Q94H/R138H/R169H/T345S) (assay: iScore multi-parametric analysis, A*0201). Conditions: level of binding: >0.5, 0.25-0.5, <0.25.
Type: binding
Description: (§1) Finally, multiparametric analysis is performed on the results from these assays and an iScore is generated. The iScore represents a measure of the overall quality of peptide-MHC binding, enabling candidate peptides to be ranked in order of binding quality and allowing rational prioritisation of peptides for functional cellular follow-up studies.
(§2) As part of the validation of the iTopia system, a panel of overlapping peptides derived from the CMV pp 65 protein were used and their binding properties for the A*0201 allele analysed. A number of T cell epitopes restricted by HLA A*0201 had already been identified (by more conventional methodologies) by other researchers for this protein. In the iTopia study, it was reported that an iScore of: >0.5 represented “good quality binding”; between 0.25 and 0.5 represented “medium quality binding”; and <0.25 represented “poor quality binding”. Six of the 20 peptides which gave a “good” iScore (>0.5) for A*0201, represented previously characterised CMV pp 65 A*0201 epitopes.
(§3) Each MHC class I allele has different binding properties and affinities for peptides which they bind. Therefore, information obtained with HLA A*0201 in which peptides are ranked as good, medium or poor binders using >0.5, 0.25-0.5 and <0.25 as thresholds is not necessarily transferable between alleles. Also, different proteins are likely to have distinct immunogenic profiles and the affinities between peptides and MHC class I molecules will be different between proteins. This may be particularly relevant in the case of self-antigens where immunogenicity is likely to be lower than in foreign proteins.
(§4) Multi-parametric analysis permits the integration of half-life and ED50 parameters in an integrated iScore. This reflects the capability of a peptide to reconstitute with MHC molecules in a stable complex, defining its overall level of binding i.e. the iScore value represents the overall quality of peptide-MHC binding and is used to rank candidate peptides as an indicator of functional relevance. The lead candidate epitopes for each allele are selected for cellular functional analysis to confirm their biological relevance.
(§5) The changes in gradient of the graphs in FIGS. 7 to 10 are indicated by a line which delineates the populations of iScores forming the basis of discrimination for further functional studies.
RGPAAGDGR [Peptide 4] was tested, and the “iScore, MHC Class I Molecule A*0201” value was 0.032. In the case of RHLDLSNNS [Peptide 119], the “iScore, MHC Class I Molecule A*0201” value is reported as 0.029. RLDEVRAGA [Peptide 65] was tested, and the “iScore, MHC Class I Molecule A*0201” value was 0.422. With RNLTHLESL [Peptide 128] the “iScore, MHC Class I Molecule A*0201” value was 0.072. For RSFEGMVVA [Peptide 97], the “iScore, MHC Class I Molecule A*0201” value was 0.189. For SASSFSSSA [Peptide 19], the “iScore, MHC Class I Molecule A*0201” value was 0.045. SLQTSYVFL [Peptide 176] was tested, and the “iScore, MHC Class I Molecule A*0201” value was 0.561. SLRHLDLSN [Peptide 118] was tested, and the “iScore, MHC Class I Molecule A*0201” value was 0.03. For SLVSLTYVS [Peptide 123], the “iScore, MHC Class I Molecule A*0201” value was 0.206. In the case of SNASVSAPS [Peptide 83], the “iScore, MHC Class I Molecule A*0201” value is reported as 0.154. With SNHFLYLPR [Peptide 110] the “iScore, MHC Class I Molecule A*0201” value was 0.051. For SPLVELILN [Peptide 87], the “iScore, MHC Class I Molecule A*0201” value was 0.094. SPTSSASSF [Peptide 17] was tested, and the “iScore, MHC Class I Molecule A*0201” value was 0. In the case of SSAPFLASA [Peptide 22], the “iScore, MHC Class I Molecule A*0201” value is reported as 0.389. SSFSSSAPF [Peptide 20] was tested, and the “iScore, MHC Class I Molecule A*0201” value was 0.037. For SYVFLGIVL [Peptide 178], the “iScore, MHC Class I Molecule A*0201” value was 0.118. TLAELQGLP [Peptide 139] was tested, and the “iScore, MHC Class I Molecule A*0201” value was 0.083. In the case of TSSASSFSS [Peptide 18], the “iScore, MHC Class I Molecule A*0201” value is reported as 0.037. In the case of TWLKETEVV [Peptide 154], the “iScore, MHC Class I Molecule A*0201” value is reported as 0.184. For VFLDNNPWV [Peptide 145], the “iScore, MHC Class I Molecule A*0201” value was 0.239. With VFLGIVLAL [Peptide 179, VFLGIVLAL] the “iScore, MHC Class I Molecule A*0201” value was 0.606.

Each sequence was assayed against MHC class I allele A*0301 (A3) (Homo sapiens, UniProt P04439) (assay: iScore multi-parametric analysis, A*0301). Conditions: level of binding: >0.5, 0.25-0.5, <0.25.
Type: binding
Description: as §1, §2, §3, §4, §5
RGPAAGDGR [Peptide 4] was tested, and the “iScore, MHC Class I Molecule A*0301” value was 0. RHLDLSNNS [Peptide 119] was tested, and the “iScore, MHC Class I Molecule A*0301” value was 0. RLDEVRAGA [Peptide 65] was tested, and the “iScore, MHC Class I Molecule A*0301” value was 0.057. For RNLTHLESL [Peptide 128], the “iScore, MHC Class I Molecule A*0301” value was 0. With RSFEGMVVA [Peptide 97] the “iScore, MHC Class I Molecule A*0301” value was 0. With SASSFSSSA [Peptide 19] the “iScore, MHC Class I Molecule A*0301” value was 0. SLQTSYVFL [Peptide 176] was tested, and the “iScore, MHC Class I Molecule A*0301” value was 0. In the case of SLRHLDLSN [Peptide 118], the “iScore, MHC Class I Molecule A*0301” value is reported as 0. In the case of SLVSLTYVS [Peptide 123], the “iScore, MHC Class I Molecule A*0301” value is reported as 0. For SNASVSAPS [Peptide 83], the “iScore, MHC Class I Molecule A*0301” value was 0. With SNHFLYLPR [Peptide 110] the “iScore, MHC Class I Molecule A*0301” value was 0.084. With SPLVELILN [Peptide 87] the “iScore, MHC Class I Molecule A*0301” value was 0. For SPTSSASSF [Peptide 17], the “iScore, MHC Class I Molecule A*0301” value was 0. SSAPFLASA [Peptide 22] was tested, and the “iScore, MHC Class I Molecule A*0301” value was 0. In the case of SSFSSSAPF [Peptide 20], the “iScore, MHC Class I Molecule A*0301” value is reported as 0. With SYVFLGIVL [Peptide 178] the “iScore, MHC Class I Molecule A*0301” value was 0. In the case of TLAELQGLP [Peptide 139], the “iScore, MHC Class I Molecule A*0301” value is reported as 0. With TSSASSFSS [Peptide 18] the “iScore, MHC Class I Molecule A*0301” value was 0. TWLKETEVV [Peptide 154] was tested, and the “iScore, MHC Class I Molecule A*0301” value was 0. For VFLDNNPWV [Peptide 145], the “iScore, MHC Class I Molecule A*0301” value was 0. In the case of VFLGIVLAL [Peptide 179, VFLGIVLAL], the “iScore, MHC Class I Molecule A*0301” value is reported as 0.

The sequences below were run against MHC class I allele A*0101 (A1) (Homo sapiens, UniProt P04439, A114D/A174V/A182V/D101N/D185E/E176A/E190D/L180R/Q94H/R68K/S129P/T187R/V100A/V91M/W191G) (assay: iScore multi-parametric analysis, A*0101). Conditions: level of binding: >0.5, 0.25-0.5, <0.25.
Type: binding
Description: as §1, §2, §3, §4, §5
In the case of RGPAAGDGR [Peptide 4], the “iScore, MHC Class I Molecule A*0101” value is reported as 0. In the case of RHLDLSNNS [Peptide 119], the “iScore, MHC Class I Molecule A*0101” value is reported as 0. For RLDEVRAGA [Peptide 65], the “iScore, MHC Class I Molecule A*0101” value was 0. RNLTHLESL [Peptide 128] was tested, and the “iScore, MHC Class I Molecule A*0101” value was 0. For RSFEGMVVA [Peptide 97], the “iScore, MHC Class I Molecule A*0101” value was 0. With SASSFSSSA [Peptide 19] the “iScore, MHC Class I Molecule A*0101” value was 0. For SLQTSYVFL [Peptide 176], the “iScore, MHC Class I Molecule A*0101” value was 0. For SLRHLDLSN [Peptide 118], the “iScore, MHC Class I Molecule A*0101” value was 0. In the case of SLVSLTYVS [Peptide 123], the “iScore, MHC Class I Molecule A*0101” value is reported as 0. With SNASVSAPS [Peptide 83] the “iScore, MHC Class I Molecule A*0101” value was 0. In the case of SNHFLYLPR [Peptide 110], the “iScore, MHC Class I Molecule A*0101” value is reported as 0. For SPLVELILN [Peptide 87], the “iScore, MHC Class I Molecule A*0101” value was 0. SPTSSASSF [Peptide 17] was tested, and the “iScore, MHC Class I Molecule A*0101” value was 0. In the case of SSAPFLASA [Peptide 22], the “iScore, MHC Class I Molecule A*0101” value is reported as 0. SSFSSSAPF [Peptide 20] was tested, and the “iScore, MHC Class I Molecule A*0101” value was 0. With SYVFLGIVL [Peptide 178] the “iScore, MHC Class I Molecule A*0101” value was 0. In the case of TLAELQGLP [Peptide 139], the “iScore, MHC Class I Molecule A*0101” value is reported as 0. For TSSASSFSS [Peptide 18], the “iScore, MHC Class I Molecule A*0101” value was 0. With TWLKETEVV [Peptide 154] the “iScore, MHC Class I Molecule A*0101” value was 0. For VFLDNNPWV [Peptide 145], the “iScore, MHC Class I Molecule A*0101” value was 0. For VFLGIVLAL [Peptide 179, VFLGIVLAL], the “iScore, MHC Class I Molecule A*0101” value was 0.

Each sequence was assayed against MHC class I allele B*0702 (B7) (Homo sapiens, UniProt P01889) (assay: iScore multi-parametric analysis, B*0702). Conditions: level of binding: >0.5, 0.25-0.5, <0.25.
Description: as §1
As part of the validation of the iTopia system, a panel of overlapping peptides derived from the CMV pp 65 protein were used and their binding properties for the A*0201 allele analysed. A number of T cell epitopes restricted by HLA A*0201 had already been identified (by more conventional methodologies) by other researchers for this protein. In the iTopia study, it was reported that an iScore of: >0.5 represented “good quality binding”; between 0.25 and 0.5 represented “medium quality binding”; and <0.25 represented “poor quality binding”.
as §4
RGPAAGDGR [Peptide 4] was tested, and the “iScore, MHC Class I Molecule B*0702” value was 0. For RHLDLSNNS [Peptide 119], the “iScore, MHC Class I Molecule B*0702” value was 0. In the case of RLDEVRAGA [Peptide 65], the “iScore, MHC Class I Molecule B*0702” value is reported as 0.032. In the case of RNLTHLESL [Peptide 128], the “iScore, MHC Class I Molecule B*0702” value is reported as 0. For RSFEGMVVA [Peptide 97], the “iScore, MHC Class I Molecule B*0702” value was 0. With SASSFSSSA [Peptide 19] the “iScore, MHC Class I Molecule B*0702” value was 0. In the case of SLQTSYVFL [Peptide 176], the “iScore, MHC Class I Molecule B*0702” value is reported as 0. With SLRHLDLSN [Peptide 118] the “iScore, MHC Class I Molecule B*0702” value was 0. With SLVSLTYVS [Peptide 123] the “iScore, MHC Class I Molecule B*0702” value was 0. For SNASVSAPS [Peptide 83], the “iScore, MHC Class I Molecule B*0702” value was 0. For SNHFLYLPR [Peptide 110], the “iScore, MHC Class I Molecule B*0702” value was 0. With SPLVELILN [Peptide 87] the “iScore, MHC Class I Molecule B*0702” value was 0. For SPTSSASSF [Peptide 17], the “iScore, MHC Class I Molecule B*0702” value was 0.335. For SSAPFLASA [Peptide 22], the “iScore, MHC Class I Molecule B*0702” value was 0. For SSFSSSAPF [Peptide 20], the “iScore, MHC Class I Molecule B*0702” value was 0. With SYVFLGIVL [Peptide 178] the “iScore, MHC Class I Molecule B*0702” value was 0.045. TLAELQGLP [Peptide 139] was tested, and the “iScore, MHC Class I Molecule B*0702” value was 0. TSSASSFSS [Peptide 18] was tested, and the “iScore, MHC Class I Molecule B*0702” value was 0. In the case of TWLKETEVV [Peptide 154], the “iScore, MHC Class I Molecule B*0702” value is reported as 0. VFLDNNPWV [Peptide 145] was tested, and the “iScore, MHC Class I Molecule B*0702” value was 0. For VFLGIVLAL [Peptide 179, VFLGIVLAL], the “iScore, MHC Class I Molecule B*0702” value was 0.
